pEC50, pIC50, pKi: −log10 of the molar value. Blank lines part the entries; values can stand above or below the molecule they belong to.
How the values were obtained:
[1] = molecular target: T1, Sphingosine 1-phosphate receptor 3 (Homo sapiens, UniProt Q99500); assay: Displacement of [33P]-S1P from S1P3 receptor (unknown origin) expressed in CHO cell membranes
[2] = molecular target: T2, Sphingosine 1-phosphate receptor 1 (Homo sapiens, UniProt P21453); assay: Displacement of [33P]-S1P from S1P1 receptor (unknown origin) expressed in CHO cell membranes
T2 sequence (P21453 whole entry): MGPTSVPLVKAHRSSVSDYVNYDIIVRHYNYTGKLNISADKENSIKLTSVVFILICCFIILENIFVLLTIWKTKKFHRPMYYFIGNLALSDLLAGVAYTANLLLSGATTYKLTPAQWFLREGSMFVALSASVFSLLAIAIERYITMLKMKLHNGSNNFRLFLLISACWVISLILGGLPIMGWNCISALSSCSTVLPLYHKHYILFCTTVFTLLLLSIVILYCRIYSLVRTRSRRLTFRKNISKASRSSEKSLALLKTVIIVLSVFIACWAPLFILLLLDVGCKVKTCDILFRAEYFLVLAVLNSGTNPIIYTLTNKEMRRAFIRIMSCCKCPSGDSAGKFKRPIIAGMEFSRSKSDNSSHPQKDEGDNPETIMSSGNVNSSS

Mus musculus [3] = assay: Reduction in peripheral lymphocyte level in mouse administered iv measured 3 hrs post dose; format: functional
[4] = Half life in po dosed Sprague-Dawley rat; format: ADME, organism-based; settings: in vivo
[5] = Half life in iv dosed Sprague-Dawley rat; format: ADME, organism-based; settings: in vivo
Trachea [6] = assay: Induction of tracheal constriction in Wistar rat at 1 uM
Trachea [7] = assay: Induction of tracheal constriction in Wistar rat at 10 uM
Mus musculus [8] = assay: Reduction in peripheral lymphocyte level in Swiss mouse at 10 mg/kg, po measured 24 hrs post dose; format: functional; design: scale not given: the % may be the effect or the level left
Rattus norvegicus = assay: Reduction in peripheral lymphocyte level in rat at 10 mg/kg, po measured 6 hrs post dose; format: functional; design: scale not given: the % may be the effect or the level left
[9] = molecular target: T2, Sphingosine 1-phosphate receptor 1; assay: Displacement of [33P]-S1P from human S1P1 receptor expressed in CHO cell membranes
[10] = molecular target: T1, Sphingosine 1-phosphate receptor 3; assay: Displacement of [33P]-S1P from human S1P3 receptor expressed in CHO cell membranes
Mus musculus [11] = assay: Immunosuppressive activity in BALB/c mouse assessed as reduction in peripheral blood lymphocytes at 30 mg/kg, ip measured 4 days post dose; format: functional; design: scale not given: the % may be the effect or the level left
[12] = molecular target: T2, Sphingosine 1-phosphate receptor 1; assay: Displacement of [33P]-S1P from S1P1 receptor (unknown origin) expressed in CHOK1 cells after 60 mins by microbeta scintillation proximity assay; format: cell-based
[13] = molecular target: T1, Sphingosine 1-phosphate receptor 3; assay: Displacement of [33P]-S1P from S1P3 receptor (unknown origin) expressed in CHOK1 cells after 60 mins by microbeta scintillation proximity assay; format: cell-based
[14] = molecular target: T2, Sphingosine 1-phosphate receptor 1; assay: Agonist activity at human S1P1 receptor expressed in CHO cell membranes after 45 mins by [35S] GTPgammaS binding based scintillation counting analysis; format: functional
[15] = molecular target: T1, Sphingosine 1-phosphate receptor 3; assay: Agonist activity at human S1P3 receptor expressed in CHO cell membranes after 45 mins by [35S] GTPgammaS binding based scintillation counting analysis; format: functional
Mus musculus [16] = assay: Reduction in peripheral lymphocyte level in mouse administered po measured 3 hrs post dose; format: functional
[17] = Oral bioavailability in mouse; format: ADME, organism-based; settings: in vivo
Homo sapiens [18] = species: Homo sapiens; assay: Toxicity in human assessed as reduction in heart rate at 1.25 mg measured for 2 days; settings: in vivo, 48 h
Homo sapiens [19] = species: Homo sapiens; assay: Toxicity in human assessed as reduction in heart rate measured every day for 9 days; settings: 216 h
Homo sapiens [20] = species: Homo sapiens; assay: Toxicity in human assessed as reduction in heart rate at 10 mg measured on day 1; settings: in vivo
Homo sapiens [21] = species: Homo sapiens; assay: Toxicity in human assessed as reduction in heart rate at 10 mg measured 2 hrs post dose; settings: in vivo

T1 sequence (Q99500 whole entry): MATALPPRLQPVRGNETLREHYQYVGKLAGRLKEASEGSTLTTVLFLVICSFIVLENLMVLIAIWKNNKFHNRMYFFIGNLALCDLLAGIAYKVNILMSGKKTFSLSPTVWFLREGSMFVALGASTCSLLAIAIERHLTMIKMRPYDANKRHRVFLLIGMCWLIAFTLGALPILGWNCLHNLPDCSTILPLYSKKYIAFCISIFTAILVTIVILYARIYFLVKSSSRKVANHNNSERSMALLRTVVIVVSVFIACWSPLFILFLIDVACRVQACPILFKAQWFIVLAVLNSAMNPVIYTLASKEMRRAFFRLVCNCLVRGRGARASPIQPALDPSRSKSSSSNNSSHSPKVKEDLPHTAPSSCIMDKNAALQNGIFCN

SMILES: CCCCCCCCc1ccc(CC[C@@H](N)C[C@H](O)P(=O)(O)O)cc1
- ED50 (Mus musculus [3]): 0.15 mg/kg

SMILES: O=C(O)C1(C(=O)O)CC(NCc2ccc(-c3noc(-c4ccc(-c5ccccc5)c(F)c4)n3)cc2)C1
- Activity (Mus musculus [8]): 86%

SMILES: CCc1cc(-c2nnc(-c3sc(C)c4c3C[C@@H]3[C@H]4C3(C)C)o2)cc(C)n1
- Activity (Rattus norvegicus): 77%

SMILES: CCCCCCCCc1ccc(CNCCCC(=O)O)cc1
- pIC50 [9]: 8.11
- pIC50 [10]: 5.92

SMILES: CCCCCCCCc1ccc2c(c1)CC(N)(CO)CC2 (centres undefined)
- Activity (Mus musculus [11]): 64%

SMILES: COCc1cc(-c2nc(-c3ccc(-c4ccc(C(=O)O)c(F)c4)cc3)no2)ccc1-c1ccccc1C
- pKi [12]: 8.54
- pKi [13]: 5.66

SMILES: CCCCCCCCc1ccc(CCC(N)COP(=O)(O)O)cc1 (centres undefined)
- ED50 (Mus musculus [3]): 0.06 mg/kg

SMILES: CCCCCCCCc1ccc(CCC(N)(CO)CO)cc1 [FINGOLIMOD]
- Activity (Homo sapiens [18]): 8 to 11 bpm
- Activity (Homo sapiens [19]): 1 to 2 bpm

SMILES: CC(C)Cc1ccc(-c2nc(-c3ccc(CN4CC(C(=O)O)C4)c(F)c3)no2)cc1 [ICANBELIMOD]
- half-life [4]: 5.5 h
- half-life [5]: 5.5 h

SMILES: CCC/N=C1\S/C(=C\c2ccc(OC[C@H](O)CO)c(Cl)c2)C(=O)N1c1ccccc1C [PONESIMOD]
- Activity (Homo sapiens [20]): 10 to 12 bpm

SMILES: CCc1cc(/C(C)=N/OCc2ccc(C3CCCCC3)c(C(F)(F)F)c2)ccc1CN1CC(C(=O)O)C1 [SIPONIMOD]
- Activity (Homo sapiens [21]): 16 bpm

Second part, led by results:

- pIC50 [1]: 8.15
- pIC50 [2]: 8.22
SMILES: CCCCCCCCc1ccc(CCC(N)(CO)CCP(=O)(O)O)cc1 (centres undefined)
- ED50 (Mus musculus [3]): 2.35 mg/kg

- half-life [4]: 11 h
- half-life [5]: 9 h
SMILES: CC(C)Cc1ccc(-c2nc(-c3ccc(CN4CC(C(=O)O)C4)cc3)no2)cc1

- Activity (Trachea [6]): 133%
SMILES: CCc1cc(-c2noc(-c3cc(CC(C)C)nc(OC)c3)n2)cc(C)c1OC[C@@H](O)CNC(=O)CO

- Activity (Trachea [6]): < 5%
- Activity (Trachea [7]): 100%
SMILES: CCc1cc(-c2noc(-c3cc(OC)nc(C(CC)CC)c3)n2)cc(C)c1OC[C@@H](O)CNC(=O)CO

- Activity (Trachea [6]): < 5%
- Activity (Trachea [7]): 24%
SMILES: CCc1cc(-c2noc(-c3cc(OC)nc(C(CC)CC)c3)n2)cc(C)c1OC[C@@H](O)CO

- pKi [12]: 9.10
- pKi [13]: 5.98
SMILES: COCc1cc(-c2nc(-c3cccc(OCC(=O)O)c3)no2)ccc1-c1ccccc1C

- pIC50 [9]: 7.92
- pIC50 [10]: 7.00
SMILES: CCCCCCCCc1ccc(CNCCCP(C)(=O)O)cc1

- Activity (Trachea [6]): < 5%
- Activity (Trachea [7]): 124%
SMILES: CCc1cc(-c2noc(-c3cc(CC(C)C)nc(OC)c3)n2)cc(C)c1OC[C@@H](O)CO

- pEC50 [14]: 7.82
- pEC50 [15]: < 4.51
SMILES: N#CC1(NC(=O)[C@@H](O)c2ccc(-c3noc(-c4onc(-c5ccccc5)c4C(F)(F)F)n3)cc2)CC1

- pIC50 [9]: 7.74
- pIC50 [10]: 5.31
- bioavailability [17]: > 70%
SMILES: CCCCCCCCc1ccc(CN2CC(C(=O)O)C2)cc1
- ED50 (Mus musculus [16]): 5.2 mg/kg

- pIC50 [9]: 8.08
- pIC50 [10]: 6.55
SMILES: CCCCCCCCc1ccc(CC[C@@H](N)CCP(=O)(O)O)cc1

Source: ChEMBL document CHEMBL4028806, “Modulators of Sphingosine-1-phosphate Pathway Biology: Recent Advances of Sphingosine-1-phosphate Receptor 1 (S1P1) Agonists and Future Perspectives” (J Med Chem, 2017)
